# Measurements: ChEMBL document CHEMBL2176918, “Design and optimization of pyrazinecarboxamide-based inhibitors of diacylglycerol acyltransferase 1 (DGAT1) leading to a clinical candidate dimethylpyrazinecarboxamide phenylcyclohexylacetic acid (AZD7687)” (J Med Chem, 2012)
# Legend:
# [1] = target: T1, Diacylglycerol O-acyltransferase 1 (Homo sapiens, UniProt O75907)
# T1 sequence (O75907 whole entry): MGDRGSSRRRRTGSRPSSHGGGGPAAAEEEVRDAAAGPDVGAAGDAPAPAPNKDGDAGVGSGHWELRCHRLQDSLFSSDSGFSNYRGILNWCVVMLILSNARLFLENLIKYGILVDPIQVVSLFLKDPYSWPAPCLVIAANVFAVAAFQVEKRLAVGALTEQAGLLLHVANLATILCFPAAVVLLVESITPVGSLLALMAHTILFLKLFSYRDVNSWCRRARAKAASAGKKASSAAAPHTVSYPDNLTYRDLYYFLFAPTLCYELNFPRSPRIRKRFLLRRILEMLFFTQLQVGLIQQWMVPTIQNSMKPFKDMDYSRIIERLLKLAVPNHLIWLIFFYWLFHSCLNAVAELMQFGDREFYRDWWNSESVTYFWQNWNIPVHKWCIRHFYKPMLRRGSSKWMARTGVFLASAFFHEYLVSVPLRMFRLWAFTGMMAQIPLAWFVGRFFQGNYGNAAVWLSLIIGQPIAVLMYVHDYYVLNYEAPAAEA
# Description: Inhibition of human recombinant DGAT1 expressed in Sf9 cells by liquid scintillography
# [2] = Volume of distribution in Han-Wistar rat at 5.4 uM/kg, po or 2.7 uM/kg, iv; type: ADME, organism-based; conditions: in vivo
# [3] = Solubility in 0.1 M phosphate buffer at pH 7.4 at 25 degC incubated for 24 hrs
# [4] = target: T2, Diacylglycerol O-acyltransferase 1 (Rattus norvegicus, UniProt Q9ERM3); test: Inhibition of DGAT1 in rat liver microsomes; design: species or system Microsome
# T2 sequence (Q9ERM3 whole entry): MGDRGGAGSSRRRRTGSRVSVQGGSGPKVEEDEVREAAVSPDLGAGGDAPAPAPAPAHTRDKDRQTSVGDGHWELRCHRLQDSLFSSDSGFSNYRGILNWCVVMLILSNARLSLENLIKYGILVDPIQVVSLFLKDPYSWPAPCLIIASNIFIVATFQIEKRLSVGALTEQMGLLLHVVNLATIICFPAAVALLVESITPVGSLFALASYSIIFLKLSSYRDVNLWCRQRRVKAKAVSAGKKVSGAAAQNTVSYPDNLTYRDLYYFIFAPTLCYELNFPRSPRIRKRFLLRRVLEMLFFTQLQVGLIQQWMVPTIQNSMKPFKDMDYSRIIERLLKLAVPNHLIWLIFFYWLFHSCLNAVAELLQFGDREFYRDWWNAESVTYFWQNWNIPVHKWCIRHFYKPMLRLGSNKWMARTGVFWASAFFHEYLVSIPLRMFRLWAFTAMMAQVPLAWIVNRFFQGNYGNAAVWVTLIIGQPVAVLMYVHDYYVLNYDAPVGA
# [5] = target: T3, Diacylglycerol O-acyltransferase 1 (Mus musculus, UniProt Q9Z2A7); test: Inhibition of DGAT1 in mouse liver microsomes; design: species or system Microsome
# T3 sequence (Q9Z2A7 whole entry): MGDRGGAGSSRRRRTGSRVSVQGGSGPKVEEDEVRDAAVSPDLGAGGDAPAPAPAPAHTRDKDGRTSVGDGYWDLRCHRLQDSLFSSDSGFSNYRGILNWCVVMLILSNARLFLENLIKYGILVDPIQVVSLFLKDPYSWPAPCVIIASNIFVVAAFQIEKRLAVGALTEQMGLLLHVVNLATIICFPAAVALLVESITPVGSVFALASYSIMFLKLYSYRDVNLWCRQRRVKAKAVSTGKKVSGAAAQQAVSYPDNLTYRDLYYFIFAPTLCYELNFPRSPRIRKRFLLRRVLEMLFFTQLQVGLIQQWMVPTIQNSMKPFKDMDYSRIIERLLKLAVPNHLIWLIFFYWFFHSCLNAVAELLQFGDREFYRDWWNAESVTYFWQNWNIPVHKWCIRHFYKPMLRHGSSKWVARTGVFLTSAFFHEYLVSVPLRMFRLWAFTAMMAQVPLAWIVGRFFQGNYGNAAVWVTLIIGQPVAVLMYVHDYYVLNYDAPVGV
# [6] = target: T2, Diacylglycerol O-acyltransferase 1; test: Inhibition of DGAT1 in rat adipose tissue assessed as reduction in triacylglycerol synthesis; type: tissue-based
# [7] = system: Rattus norvegicus; test: Inhibition of plasma triacylglycerol excursion in 14 hrs fasted Han-Wistar rat at administered orally 2 hrs before bolus corn oil administration measured 1.5 hrs post corn oil challenge by oral lipid tolerance test relative to control
# [8] = target: T1, Diacylglycerol O-acyltransferase 1; test: Inhibition of DGAT1 in human liver microsomes; design: species or system Microsome
# [9] = Volume of distribution in Beagle dog at 27.2 uM/kg, po or 1.4 uM/kg, iv; type: ADME, organism-based, Canis lupus familiaris; conditions: in vivo
# [10] = target: T4, Cytochrome P450 1A2 (Homo sapiens, UniProt P05177); test: Inhibition of CYP1A2; type: ADME
# T4 sequence (P05177 whole entry): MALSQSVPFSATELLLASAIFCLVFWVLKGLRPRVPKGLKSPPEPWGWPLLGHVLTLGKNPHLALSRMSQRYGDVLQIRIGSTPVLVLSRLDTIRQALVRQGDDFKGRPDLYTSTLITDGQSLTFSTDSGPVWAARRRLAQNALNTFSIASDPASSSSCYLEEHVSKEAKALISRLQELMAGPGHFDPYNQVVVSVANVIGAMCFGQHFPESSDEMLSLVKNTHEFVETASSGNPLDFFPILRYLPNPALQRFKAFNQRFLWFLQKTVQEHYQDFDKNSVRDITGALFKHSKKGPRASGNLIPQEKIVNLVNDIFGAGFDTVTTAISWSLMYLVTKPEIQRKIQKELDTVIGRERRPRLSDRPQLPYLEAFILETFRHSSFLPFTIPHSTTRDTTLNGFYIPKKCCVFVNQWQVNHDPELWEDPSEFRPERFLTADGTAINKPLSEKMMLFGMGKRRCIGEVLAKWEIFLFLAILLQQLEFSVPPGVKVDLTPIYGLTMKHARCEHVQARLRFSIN
# [11] = target: Cytochrome P450 2C19 (Homo sapiens, UniProt P33261); test: Inhibition of CYP2C19; type: ADME
# Chain of Cytochrome P450 2C19 (P33261 whole entry): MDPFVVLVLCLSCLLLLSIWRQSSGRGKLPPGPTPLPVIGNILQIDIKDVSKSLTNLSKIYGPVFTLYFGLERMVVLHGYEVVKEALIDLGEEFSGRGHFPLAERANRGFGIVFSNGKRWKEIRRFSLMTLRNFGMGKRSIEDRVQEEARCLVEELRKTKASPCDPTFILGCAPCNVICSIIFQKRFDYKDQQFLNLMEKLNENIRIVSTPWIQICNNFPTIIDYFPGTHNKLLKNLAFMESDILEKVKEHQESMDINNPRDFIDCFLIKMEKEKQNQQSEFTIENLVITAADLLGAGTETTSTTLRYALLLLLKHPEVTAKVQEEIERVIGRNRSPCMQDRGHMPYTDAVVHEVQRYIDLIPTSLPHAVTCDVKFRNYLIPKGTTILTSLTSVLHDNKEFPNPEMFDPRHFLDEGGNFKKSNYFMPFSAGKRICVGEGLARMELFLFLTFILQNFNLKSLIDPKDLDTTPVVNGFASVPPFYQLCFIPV
# [12] = Photostability stability by Hanau sun test; type: physicochemical
# [13] = target: Cytochrome P450 2D6 (Homo sapiens, UniProt P10635); test: Inhibition of CYP2D6; type: ADME
# Chain of Cytochrome P450 2D6 (P10635 whole entry): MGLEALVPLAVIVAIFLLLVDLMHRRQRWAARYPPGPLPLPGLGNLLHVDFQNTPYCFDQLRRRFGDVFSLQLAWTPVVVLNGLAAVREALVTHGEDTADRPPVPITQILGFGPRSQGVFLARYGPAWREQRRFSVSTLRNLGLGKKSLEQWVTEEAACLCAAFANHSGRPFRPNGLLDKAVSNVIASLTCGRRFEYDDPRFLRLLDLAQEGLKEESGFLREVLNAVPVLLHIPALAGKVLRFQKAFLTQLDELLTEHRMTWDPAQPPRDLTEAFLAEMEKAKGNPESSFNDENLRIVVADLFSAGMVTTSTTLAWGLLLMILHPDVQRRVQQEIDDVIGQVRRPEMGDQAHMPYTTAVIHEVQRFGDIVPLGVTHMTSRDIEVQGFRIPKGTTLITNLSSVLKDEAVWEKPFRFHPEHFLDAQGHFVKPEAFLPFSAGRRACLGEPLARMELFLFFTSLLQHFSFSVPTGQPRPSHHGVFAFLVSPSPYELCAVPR
# [14] = Fraction unbound in rat plasma; type: ADME, cell-free
smiles,measurement,setting,value
Cc1nc(C)c(-c2ccc(C3CCC(CC(=O)O)CC3)cc2)nc1C(N)=O (centres undefined) [AZD-7687],IC50,[1],80 nM
same,Vd,[2],0.35 L/kg
same,solubility at 24 h,[3],700 µM
same,IC50,[4],150 nM
same,IC50,[5],100 nM
same,IC50,[6],90 nM
same,IC50,[7],42 nM
same,IC50,[8],70 nM
same,Vd,[9],1 L/kg
same,IC50,[10],> 30000 nM
same,IC50,[11],> 30000 nM
same,half-life,[12],7.6 h
same,IC50,[13],> 30000 nM
same,fraction unbound,[14],0.03
